Reference: ChEMBL document CHEMBL1201862, “PubChem BioAssay data set” (2004)
The source made the active and inactive calls.

Assays:
[1] = target: T1, Protein RecA (Mycobacterium tuberculosis, UniProt P9WHJ3); experiment: GFP-RecA MOA-DTT Measured in Biochemical System Using Plate Reader - 2047-05_Inhibitor_Dose_DryPowder_Activity. [Related pubchem assays (depositor defined):AID2223]; set-up: species or system Mycobacterium tuberculosis H37Rv
T1 sequence (P9WHJ3 whole entry): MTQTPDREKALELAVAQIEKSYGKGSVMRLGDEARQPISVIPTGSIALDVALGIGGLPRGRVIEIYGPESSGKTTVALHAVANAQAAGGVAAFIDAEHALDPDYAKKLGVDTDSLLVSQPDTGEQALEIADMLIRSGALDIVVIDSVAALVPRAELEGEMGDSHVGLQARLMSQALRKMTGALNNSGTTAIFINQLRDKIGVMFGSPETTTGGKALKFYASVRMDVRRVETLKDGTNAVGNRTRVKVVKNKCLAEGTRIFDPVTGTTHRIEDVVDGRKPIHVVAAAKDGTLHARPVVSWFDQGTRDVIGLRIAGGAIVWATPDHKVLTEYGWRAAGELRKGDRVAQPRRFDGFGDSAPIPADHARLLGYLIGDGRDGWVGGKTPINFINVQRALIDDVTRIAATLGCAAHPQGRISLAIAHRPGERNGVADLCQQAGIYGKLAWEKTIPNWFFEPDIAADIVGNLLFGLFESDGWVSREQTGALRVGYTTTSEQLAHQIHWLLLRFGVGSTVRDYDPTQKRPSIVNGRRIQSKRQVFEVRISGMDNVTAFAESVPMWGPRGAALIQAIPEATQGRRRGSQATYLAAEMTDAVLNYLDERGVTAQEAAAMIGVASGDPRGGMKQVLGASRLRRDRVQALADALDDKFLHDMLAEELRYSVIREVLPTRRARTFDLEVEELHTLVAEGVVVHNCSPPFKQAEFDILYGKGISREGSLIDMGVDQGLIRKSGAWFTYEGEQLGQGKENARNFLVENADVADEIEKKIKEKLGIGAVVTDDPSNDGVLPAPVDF

[2] = target: T2, Replicative DNA helicase DnaB (Mycobacterium tuberculosis, UniProt P9WMR3); experiment: DnaB intein splicing inhibitors, dose response, biochemical, cell-free fluorescence (AID 449749); format: functional
T2 sequence (P9WMR3 whole entry): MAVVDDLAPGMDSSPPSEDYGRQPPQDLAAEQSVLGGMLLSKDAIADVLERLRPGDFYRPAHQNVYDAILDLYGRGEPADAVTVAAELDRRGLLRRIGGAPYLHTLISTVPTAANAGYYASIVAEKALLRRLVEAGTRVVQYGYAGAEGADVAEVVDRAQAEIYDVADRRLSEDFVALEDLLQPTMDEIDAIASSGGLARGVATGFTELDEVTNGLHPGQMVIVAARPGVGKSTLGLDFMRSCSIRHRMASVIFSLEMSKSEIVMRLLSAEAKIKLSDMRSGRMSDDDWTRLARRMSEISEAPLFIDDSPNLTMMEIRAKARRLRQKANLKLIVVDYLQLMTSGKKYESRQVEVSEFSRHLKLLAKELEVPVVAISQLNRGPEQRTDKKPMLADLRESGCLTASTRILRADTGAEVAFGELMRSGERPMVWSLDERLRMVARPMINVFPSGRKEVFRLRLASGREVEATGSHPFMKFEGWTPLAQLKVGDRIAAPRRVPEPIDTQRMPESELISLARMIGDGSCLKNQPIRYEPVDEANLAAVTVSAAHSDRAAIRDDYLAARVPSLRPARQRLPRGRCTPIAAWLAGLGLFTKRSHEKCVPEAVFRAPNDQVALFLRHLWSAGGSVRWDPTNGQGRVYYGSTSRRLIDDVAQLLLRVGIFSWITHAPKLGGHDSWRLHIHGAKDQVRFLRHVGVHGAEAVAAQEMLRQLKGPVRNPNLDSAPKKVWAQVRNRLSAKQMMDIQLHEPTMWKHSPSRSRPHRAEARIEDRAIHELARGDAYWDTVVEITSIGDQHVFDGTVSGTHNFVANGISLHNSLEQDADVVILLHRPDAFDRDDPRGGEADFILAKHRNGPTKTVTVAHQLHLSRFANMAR

[3] = target: T1, Protein RecA; experiment: RecA Intein Measured in Biochemical System Using Plate Reader - 2047-02_Inhibitor_Dose_DryPowder_Activity. [Related pubchem assays (depositor defined):AID2223]; set-up: species or system Mycobacterium tuberculosis H37Rv
[4] = target: T1, Protein RecA; experiment: Fluorescence Cell-Free Homogeneous Dose Retest to Identify Inhibitors of RecA-Intein Splicing Activity. [Related pubchem assays (depositor defined):AID2097, AID2223, AID489010, AID492950]; format: functional
[5] = target: T2, Replicative DNA helicase DnaB; experiment: DnaB Intein secondary assay Measured in Biochemical System Using Plate Reader - 2047-04_Inhibitor_Dose_DryPowder_Activity. [Related pubchem assays (depositor defined):AID2223]
[6] = compounds quenching green fluorescent protein signal – biochemical, plate reader, dry powder, artefact control, dose response (AID 493243)
[7] = Intein inhibitors as potential Tuberculosis drugs, a cytotoxicity screen. [Related pubchem assays (depositor defined):AID2221, AID2223, AID434968, AID435010, AID449749, AID449750, AID489010]; format: functional
[8] = target: T3, Heat shock factor protein 1 (Mus musculus, UniProt P38532); experiment: decrease of HSF1-responsive luciferase luminescence – cell-based, NIH3T3, dose retest, confirmation (AID 2382); format: functional;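 note: NIH3T3 fibroblasts with HSF1-driven luciferase reporter stressed by proteasome inhibitor MG132; luminescence from HSF1-driven luciferase expression after 8 hours of MG132 stress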
T3 sequence (P38532 whole entry): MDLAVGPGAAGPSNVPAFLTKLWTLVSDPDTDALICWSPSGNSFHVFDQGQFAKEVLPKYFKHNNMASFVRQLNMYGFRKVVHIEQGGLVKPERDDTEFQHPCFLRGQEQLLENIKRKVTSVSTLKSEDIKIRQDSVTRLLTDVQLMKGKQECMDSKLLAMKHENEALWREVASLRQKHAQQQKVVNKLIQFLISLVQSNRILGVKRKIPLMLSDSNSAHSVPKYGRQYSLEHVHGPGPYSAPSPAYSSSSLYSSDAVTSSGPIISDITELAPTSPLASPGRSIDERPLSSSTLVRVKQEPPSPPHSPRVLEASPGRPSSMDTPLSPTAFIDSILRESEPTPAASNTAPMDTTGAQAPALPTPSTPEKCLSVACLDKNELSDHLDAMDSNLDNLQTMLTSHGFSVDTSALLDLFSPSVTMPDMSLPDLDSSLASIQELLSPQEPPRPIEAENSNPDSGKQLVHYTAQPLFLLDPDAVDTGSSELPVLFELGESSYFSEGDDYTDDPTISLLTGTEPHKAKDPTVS

[9] = target: DNA damage-inducible transcript 3 protein (Mus musculus, UniProt P35639); format: functional, Cricetulus griseus
[10] = target: T4, SUMO-activating enzyme (Homo sapiens, UniProt Q9UBT2); experiment: blockers of UBC9-mediated SUMO conjugation – biochemical, AlphaScreen, SUMOylation inhibitor project, confirmation (AID 2018); format: functional
[11] = cells; format: functional, cell-based
[12] = cells; format: functional, cell-based; remark: listed apart in the source
[13] = target: T4, SUMO-activating enzyme; experiment: blockers of SAE1/SAE2–UBC9 SUMO transfer – biochemical, HTRF, uHTS, primary screen (AID 2006); format: protein-complex assay
[14] = Luminescence Cell-Based Dose Retest to Confirm Inhibitors of Cancer Stem Cells. [Related pubchem assays (depositor defined):AID2717, AID2721]; format: functional; settings: Homo sapiens
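Throughout, for CC50: cells exposed to compound for 72 hours before luminescence readout.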

T4 sequence (Q9UBE0 whole entry): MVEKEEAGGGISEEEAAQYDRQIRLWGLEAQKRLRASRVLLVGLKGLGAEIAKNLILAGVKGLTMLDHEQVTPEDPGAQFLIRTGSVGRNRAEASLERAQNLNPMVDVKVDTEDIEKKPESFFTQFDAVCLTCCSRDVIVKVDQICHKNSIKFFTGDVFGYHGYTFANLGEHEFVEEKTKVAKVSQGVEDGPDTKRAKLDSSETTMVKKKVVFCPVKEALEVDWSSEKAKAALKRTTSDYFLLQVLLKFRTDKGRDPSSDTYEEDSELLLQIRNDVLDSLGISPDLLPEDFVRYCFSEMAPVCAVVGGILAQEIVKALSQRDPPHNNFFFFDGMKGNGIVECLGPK
T4 sequence (Q9UBT2 whole entry): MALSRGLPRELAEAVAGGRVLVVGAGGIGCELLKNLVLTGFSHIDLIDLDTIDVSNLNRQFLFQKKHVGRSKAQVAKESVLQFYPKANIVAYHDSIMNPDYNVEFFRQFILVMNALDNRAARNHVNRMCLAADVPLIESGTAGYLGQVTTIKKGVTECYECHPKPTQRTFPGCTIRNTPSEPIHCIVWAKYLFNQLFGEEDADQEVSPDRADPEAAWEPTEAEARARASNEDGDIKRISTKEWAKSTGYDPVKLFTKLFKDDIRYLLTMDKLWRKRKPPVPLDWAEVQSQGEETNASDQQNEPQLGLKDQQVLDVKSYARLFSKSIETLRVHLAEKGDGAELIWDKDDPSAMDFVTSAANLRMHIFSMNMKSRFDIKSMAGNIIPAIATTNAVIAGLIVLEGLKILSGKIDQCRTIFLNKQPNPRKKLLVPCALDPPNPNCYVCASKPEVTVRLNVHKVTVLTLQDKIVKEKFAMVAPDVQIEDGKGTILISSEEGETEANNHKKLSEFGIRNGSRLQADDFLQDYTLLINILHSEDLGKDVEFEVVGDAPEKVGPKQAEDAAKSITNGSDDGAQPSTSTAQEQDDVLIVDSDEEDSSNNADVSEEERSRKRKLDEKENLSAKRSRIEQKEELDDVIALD
Sequence of DNA damage-inducible transcript 3 protein (P35639 whole entry): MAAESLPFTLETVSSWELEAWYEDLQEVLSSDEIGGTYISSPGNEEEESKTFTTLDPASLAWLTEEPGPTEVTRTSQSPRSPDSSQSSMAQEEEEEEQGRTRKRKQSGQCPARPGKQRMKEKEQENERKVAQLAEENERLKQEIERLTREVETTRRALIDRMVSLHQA

SMILES: O=C(CCl)Nc1cn(-c2ccccc2)nc1-c1ccc(F)cc1
- AC50 [1]: 29.4 µM (active)
- AC50 [2]: 2.77 µM (active)
- AC50 [3]: 8.58 µM (active)
- EC50 [4]: 2.77 µM (active)
- AC50 [5]: 101 µM (active)
- AC50 [6]: 262 µM (active)
- CC50 [7]: 6.59 µM (active)
- EC50 [8]: 6.91 µM (active)
- Absolute IC50 (CHOP) [9]: 10 µM

SMILES: C/C(=N\OCc1nc2ccccc2c(=O)n1/N=C/c1cc([N+](=O)[O-])ccc1O)c1ccccc1
- IC50 [10]: 5.22 µM (active)
- EC50 [11]: > 350 µM (not active)
- EC50 [12]: 245 µM (active)
- IC50 [13]: 41.1 µM (active)
- AC50 [14]: 7.33 µM (active)
